Data published in PMC8401933 (Molecules, 2021).

Assays:
DDR2 = target: T1, DDR2 (Homo sapiens, UniProt Q16832); assay: KINOMEscan binding; conditions: read-out: Percent Control
T1 construct: purchased Eurofins DiscoverX KINOMEscan

CDC2L1 = target: T2, CDC2L1 (Homo sapiens, UniProt P21127); assay: KINOMEscan binding; conditions: read-out: Percent Control
T2 construct: purchased Eurofins DiscoverX KINOMEscan

IKK-alpha = target: T3, IKK-alpha (Homo sapiens, UniProt O15111); assay: KINOMEscan binding; conditions: read-out: Percent Control
T3 construct: purchased Eurofins DiscoverX KINOMEscan

PRKD1 = target: T4, PRKD1 (Homo sapiens, UniProt Q15139); assay: KINOMEscan binding; conditions: read-out: Percent Control
T4 construct: purchased Eurofins DiscoverX KINOMEscan

PRKG2 = target: T5, PRKG2 (Homo sapiens, UniProt Q13237); assay: KINOMEscan binding; conditions: read-out: Percent Control
T5 construct: purchased Eurofins DiscoverX KINOMEscan

TTK = target: T6, TTK (Homo sapiens, UniProt P33981); assay: KINOMEscan binding; conditions: read-out: Percent Control
T6 construct: purchased Eurofins DiscoverX KINOMEscan

BMPR1B = target: T7, BMPR1B (Homo sapiens, UniProt O00238); assay: KINOMEscan binding; conditions: read-out: Percent Control
T7 construct: purchased Eurofins DiscoverX KINOMEscan

NEK3 = target: T8, NEK3 (Homo sapiens, UniProt P51956); assay: KINOMEscan binding; conditions: read-out: Percent Control
T8 construct: purchased Eurofins DiscoverX KINOMEscan

DRAK2 = target: T9, DRAK2 (Homo sapiens, UniProt O94768); assay: KINOMEscan binding; conditions: read-out: Percent Control
T9 construct: purchased Eurofins DiscoverX KINOMEscan

FGFR3 = target: T10, FGFR3 (Homo sapiens, UniProt P22607); assay: KINOMEscan binding; conditions: read-out: Percent Control
T10 construct: purchased Eurofins DiscoverX KINOMEscan

[1] = target: T11, ABL1(Q252H)-phosphorylated (Homo sapiens, UniProt P00519, Q252H); assay: KINOMEscan binding; conditions: read-out: Percent Control
T11 construct: purchased Eurofins DiscoverX KINOMEscan

NDR1 = target: T12, NDR1 (Homo sapiens, UniProt Q15208); assay: KINOMEscan binding; conditions: read-out: Percent Control
T12 construct: purchased Eurofins DiscoverX KINOMEscan

DCAMKL2 = target: T13, DCAMKL2 (Homo sapiens, UniProt Q8N568); assay: KINOMEscan binding; conditions: read-out: Percent Control
T13 construct: purchased Eurofins DiscoverX KINOMEscan

LIMK2 = target: T14, LIMK2 (Homo sapiens, UniProt P53671); assay: KINOMEscan binding; conditions: read-out: Percent Control
T14 construct: purchased Eurofins DiscoverX KINOMEscan

MYO3B = target: T15, MYO3B (Homo sapiens, UniProt Q8WXR4); assay: KINOMEscan binding; conditions: read-out: Percent Control
T15 construct: purchased Eurofins DiscoverX KINOMEscan

NEK11 = target: T16, NEK11 (Homo sapiens, UniProt Q8NG66); assay: KINOMEscan binding; conditions: read-out: Percent Control
T16 construct: purchased Eurofins DiscoverX KINOMEscan

EPHA5 = target: T17, EPHA5 (Homo sapiens, UniProt P54756); assay: KINOMEscan binding; conditions: read-out: Percent Control
T17 construct: purchased Eurofins DiscoverX KINOMEscan

JNK2 = target: T18, JNK2 (Homo sapiens, UniProt P45984); assay: KINOMEscan binding; conditions: read-out: Percent Control
T18 construct: purchased Eurofins DiscoverX KINOMEscan

EPHA6 = target: T19, EPHA6 (Homo sapiens, UniProt Q9UF33); assay: KINOMEscan binding; conditions: read-out: Percent Control
T19 construct: purchased Eurofins DiscoverX KINOMEscan

PIKFYVE = target: T20, PIKFYVE (Homo sapiens, UniProt Q9Y2I7); assay: KINOMEscan binding; conditions: read-out: Percent Control
T20 construct: purchased Eurofins DiscoverX KINOMEscan

[2] = target: T21, ABL1(T315I)-phosphorylated (Homo sapiens, UniProt P00519, T315I); assay: KINOMEscan binding; conditions: read-out: Percent Control
T21 construct: purchased Eurofins DiscoverX KINOMEscan

PRKCD = target: T22, PRKCD (Homo sapiens, UniProt Q05655); assay: KINOMEscan binding; conditions: read-out: Percent Control
T22 construct: purchased Eurofins DiscoverX KINOMEscan

DYRK1A = target: T23, DYRK1A (Homo sapiens, UniProt Q13627); assay: KINOMEscan binding; conditions: read-out: Percent Control
T23 construct: purchased Eurofins DiscoverX KINOMEscan

WNK1 = target: T24, WNK1 (Homo sapiens, UniProt Q9H4A3); assay: KINOMEscan binding; conditions: read-out: Percent Control
T24 construct: purchased Eurofins DiscoverX KINOMEscan

FGFR4 = target: T25, FGFR4 (Homo sapiens, UniProt P22455); assay: KINOMEscan binding; conditions: read-out: Percent Control
T25 construct: purchased Eurofins DiscoverX KINOMEscan

KIT(D816V) = target: T26, KIT(D816V) (Homo sapiens, UniProt P10721, D816V); assay: KINOMEscan binding; conditions: read-out: Percent Control
T26 construct: purchased Eurofins DiscoverX KINOMEscan

FLT3(D835V) = target: T27, FLT3(D835V) (Homo sapiens, UniProt P36888, D835V); assay: KINOMEscan binding; conditions: read-out: Percent Control
T27 construct: purchased Eurofins DiscoverX KINOMEscan

NDR2 = target: T28, NDR2 (Homo sapiens, UniProt Q9Y2H1); assay: KINOMEscan binding; conditions: read-out: Percent Control
T28 construct: purchased Eurofins DiscoverX KINOMEscan

RAF1 = target: T29, RAF1 (Homo sapiens, UniProt P04049); assay: KINOMEscan binding; conditions: read-out: Percent Control
T29 construct: purchased Eurofins DiscoverX KINOMEscan

CAMKK2 = target: T30, CAMKK2 (Homo sapiens, UniProt Q96RR4); assay: KINOMEscan binding; conditions: read-out: Percent Control
T30 construct: purchased Eurofins DiscoverX KINOMEscan

LRRK2 = target: T31, LRRK2 (Homo sapiens, UniProt Q5S007); assay: KINOMEscan binding; conditions: read-out: Percent Control
T31 construct: purchased Eurofins DiscoverX KINOMEscan

DDR1 = target: T32, DDR1 (Homo sapiens, UniProt Q08345); assay: KINOMEscan binding; conditions: read-out: Percent Control
T32 construct: purchased Eurofins DiscoverX KINOMEscan

LRRK2(G2019S) = target: T33, LRRK2(G2019S) (Homo sapiens, UniProt Q5S007, G2019S); assay: KINOMEscan binding; conditions: read-out: Percent Control
T33 construct: purchased Eurofins DiscoverX KINOMEscan

ROS1 = target: T34, ROS1 (Homo sapiens, UniProt P08922); assay: KINOMEscan binding; conditions: read-out: Percent Control
T34 construct: purchased Eurofins DiscoverX KINOMEscan

TGFBR1 = target: T35, TGFBR1 (Homo sapiens, UniProt P36897); assay: KINOMEscan binding; conditions: read-out: Percent Control
T35 construct: purchased Eurofins DiscoverX KINOMEscan

FLT3-autoinhibited = target: T36, FLT3-autoinhibited (Homo sapiens, UniProt P36888); assay: KINOMEscan binding; conditions: read-out: Percent Control
T36 construct: purchased Eurofins DiscoverX KINOMEscan

SRPK3 = target: T37, SRPK3 (Homo sapiens, UniProt Q9UPE1); assay: KINOMEscan binding; conditions: read-out: Percent Control
T37 construct: purchased Eurofins DiscoverX KINOMEscan

CDK9 = target: T38, CDK9 (Homo sapiens, UniProt P50750); assay: KINOMEscan binding; conditions: read-out: Percent Control
T38 construct: purchased Eurofins DiscoverX KINOMEscan

GCN2(Kin.Dom.2,S808G) = target: T39, GCN2(Kin.Dom.2,S808G) (Homo sapiens, UniProt Q9P2K8, S808G); assay: KINOMEscan binding; conditions: read-out: Percent Control
T39 construct: GCN2(Kin.Dom.2,S808G); purchased Eurofins DiscoverX KINOMEscan

CSK = target: T40, CSK (Homo sapiens, UniProt P41240); assay: KINOMEscan binding; conditions: read-out: Percent Control
T40 construct: purchased Eurofins DiscoverX KINOMEscan

[3] = oral, rat model; cited from earlier work
BMX = target: T41, BMX (Homo sapiens, UniProt P51813); assay: KINOMEscan binding; conditions: read-out: Percent Control
T41 construct: purchased Eurofins DiscoverX KINOMEscan

PKN2 = target: T42, PKN2 (Homo sapiens, UniProt Q16513); assay: KINOMEscan binding; conditions: read-out: Percent Control
T42 construct: purchased Eurofins DiscoverX KINOMEscan

EPHA1 = target: T43, EPHA1 (Homo sapiens, UniProt P21709); assay: KINOMEscan binding; conditions: read-out: Percent Control
T43 construct: purchased Eurofins DiscoverX KINOMEscan

T1 sequence (Q16832 22-855): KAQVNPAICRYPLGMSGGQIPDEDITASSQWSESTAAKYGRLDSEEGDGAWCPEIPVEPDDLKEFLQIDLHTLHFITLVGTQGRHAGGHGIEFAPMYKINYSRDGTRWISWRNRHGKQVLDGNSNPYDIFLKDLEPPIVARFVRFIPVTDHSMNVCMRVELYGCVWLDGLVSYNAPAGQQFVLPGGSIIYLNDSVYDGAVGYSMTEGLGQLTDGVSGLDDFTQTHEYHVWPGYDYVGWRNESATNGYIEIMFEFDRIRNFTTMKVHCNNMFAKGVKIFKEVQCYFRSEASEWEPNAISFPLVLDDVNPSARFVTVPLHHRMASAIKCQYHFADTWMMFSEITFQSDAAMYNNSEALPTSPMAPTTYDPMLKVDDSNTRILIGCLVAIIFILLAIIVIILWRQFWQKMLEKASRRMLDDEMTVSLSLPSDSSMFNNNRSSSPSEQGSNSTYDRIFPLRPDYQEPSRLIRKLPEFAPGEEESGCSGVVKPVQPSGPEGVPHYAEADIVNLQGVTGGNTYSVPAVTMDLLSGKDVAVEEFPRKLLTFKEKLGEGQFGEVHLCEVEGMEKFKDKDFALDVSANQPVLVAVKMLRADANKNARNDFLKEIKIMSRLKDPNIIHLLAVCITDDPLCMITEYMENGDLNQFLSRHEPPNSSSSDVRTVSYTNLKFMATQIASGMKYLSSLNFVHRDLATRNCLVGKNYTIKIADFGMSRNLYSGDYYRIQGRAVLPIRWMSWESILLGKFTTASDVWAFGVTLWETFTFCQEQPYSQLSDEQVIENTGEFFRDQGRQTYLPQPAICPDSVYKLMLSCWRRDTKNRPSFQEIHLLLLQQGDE
T32 sequence (Q08345 19-913): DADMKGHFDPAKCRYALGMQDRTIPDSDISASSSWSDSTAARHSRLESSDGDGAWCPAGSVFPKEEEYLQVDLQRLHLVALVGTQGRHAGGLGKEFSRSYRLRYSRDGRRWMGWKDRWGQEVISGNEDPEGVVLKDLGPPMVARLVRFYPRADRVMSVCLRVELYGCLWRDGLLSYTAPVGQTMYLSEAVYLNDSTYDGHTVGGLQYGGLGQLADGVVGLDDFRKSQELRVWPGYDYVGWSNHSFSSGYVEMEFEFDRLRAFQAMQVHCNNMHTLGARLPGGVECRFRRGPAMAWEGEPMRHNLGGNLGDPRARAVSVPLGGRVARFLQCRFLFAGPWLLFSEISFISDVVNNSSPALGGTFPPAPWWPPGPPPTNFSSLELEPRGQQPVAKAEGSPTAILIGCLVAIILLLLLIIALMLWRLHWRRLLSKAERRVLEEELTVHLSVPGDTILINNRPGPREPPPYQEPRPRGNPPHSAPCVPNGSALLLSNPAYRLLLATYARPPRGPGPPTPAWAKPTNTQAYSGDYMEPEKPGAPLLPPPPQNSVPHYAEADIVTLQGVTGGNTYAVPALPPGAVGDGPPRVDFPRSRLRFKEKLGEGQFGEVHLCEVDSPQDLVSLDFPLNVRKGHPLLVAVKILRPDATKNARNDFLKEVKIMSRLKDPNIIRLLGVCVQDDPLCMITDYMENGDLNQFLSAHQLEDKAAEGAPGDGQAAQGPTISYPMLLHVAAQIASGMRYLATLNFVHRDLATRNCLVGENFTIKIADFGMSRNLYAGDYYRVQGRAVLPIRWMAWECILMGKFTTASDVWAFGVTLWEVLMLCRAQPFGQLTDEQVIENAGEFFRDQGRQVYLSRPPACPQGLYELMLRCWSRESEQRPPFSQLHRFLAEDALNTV
T42 sequence (Q16513 whole entry): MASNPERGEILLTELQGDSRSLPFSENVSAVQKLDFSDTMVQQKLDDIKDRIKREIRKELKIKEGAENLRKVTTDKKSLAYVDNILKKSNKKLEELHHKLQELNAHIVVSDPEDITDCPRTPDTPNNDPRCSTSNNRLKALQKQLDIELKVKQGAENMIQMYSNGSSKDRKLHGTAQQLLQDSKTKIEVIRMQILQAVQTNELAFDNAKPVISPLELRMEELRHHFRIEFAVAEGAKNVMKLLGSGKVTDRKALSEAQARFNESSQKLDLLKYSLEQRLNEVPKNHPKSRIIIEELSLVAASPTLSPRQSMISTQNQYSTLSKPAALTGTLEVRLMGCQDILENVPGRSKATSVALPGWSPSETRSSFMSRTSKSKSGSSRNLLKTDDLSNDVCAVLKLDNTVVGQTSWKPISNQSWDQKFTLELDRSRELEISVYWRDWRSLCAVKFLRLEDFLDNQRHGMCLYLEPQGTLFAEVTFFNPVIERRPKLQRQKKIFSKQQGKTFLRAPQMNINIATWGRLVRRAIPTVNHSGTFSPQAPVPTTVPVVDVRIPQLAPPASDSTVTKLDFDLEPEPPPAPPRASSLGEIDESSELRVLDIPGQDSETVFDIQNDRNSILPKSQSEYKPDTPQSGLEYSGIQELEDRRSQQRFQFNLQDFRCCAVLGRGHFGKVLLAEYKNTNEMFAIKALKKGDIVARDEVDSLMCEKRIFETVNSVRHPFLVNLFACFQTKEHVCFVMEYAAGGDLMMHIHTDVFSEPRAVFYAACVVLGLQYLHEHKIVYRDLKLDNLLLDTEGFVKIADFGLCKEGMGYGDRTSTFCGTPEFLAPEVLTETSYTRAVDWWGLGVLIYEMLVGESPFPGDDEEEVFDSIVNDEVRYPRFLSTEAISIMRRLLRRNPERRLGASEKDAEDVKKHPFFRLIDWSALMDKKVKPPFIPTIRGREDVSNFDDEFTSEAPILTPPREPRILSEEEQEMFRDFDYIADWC
T18 sequence (P45984 whole entry): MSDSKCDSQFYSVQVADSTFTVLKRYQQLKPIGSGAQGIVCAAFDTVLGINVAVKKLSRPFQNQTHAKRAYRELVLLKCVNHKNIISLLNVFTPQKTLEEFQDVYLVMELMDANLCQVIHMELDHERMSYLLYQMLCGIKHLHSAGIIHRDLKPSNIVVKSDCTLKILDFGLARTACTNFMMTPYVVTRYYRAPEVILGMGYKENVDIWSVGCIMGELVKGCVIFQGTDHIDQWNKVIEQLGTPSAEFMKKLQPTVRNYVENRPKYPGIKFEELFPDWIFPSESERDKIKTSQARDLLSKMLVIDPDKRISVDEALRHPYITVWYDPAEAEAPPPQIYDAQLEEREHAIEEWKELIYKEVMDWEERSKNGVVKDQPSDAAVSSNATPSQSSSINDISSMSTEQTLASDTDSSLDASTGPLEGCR
T19 sequence (Q9UF33 23-1036): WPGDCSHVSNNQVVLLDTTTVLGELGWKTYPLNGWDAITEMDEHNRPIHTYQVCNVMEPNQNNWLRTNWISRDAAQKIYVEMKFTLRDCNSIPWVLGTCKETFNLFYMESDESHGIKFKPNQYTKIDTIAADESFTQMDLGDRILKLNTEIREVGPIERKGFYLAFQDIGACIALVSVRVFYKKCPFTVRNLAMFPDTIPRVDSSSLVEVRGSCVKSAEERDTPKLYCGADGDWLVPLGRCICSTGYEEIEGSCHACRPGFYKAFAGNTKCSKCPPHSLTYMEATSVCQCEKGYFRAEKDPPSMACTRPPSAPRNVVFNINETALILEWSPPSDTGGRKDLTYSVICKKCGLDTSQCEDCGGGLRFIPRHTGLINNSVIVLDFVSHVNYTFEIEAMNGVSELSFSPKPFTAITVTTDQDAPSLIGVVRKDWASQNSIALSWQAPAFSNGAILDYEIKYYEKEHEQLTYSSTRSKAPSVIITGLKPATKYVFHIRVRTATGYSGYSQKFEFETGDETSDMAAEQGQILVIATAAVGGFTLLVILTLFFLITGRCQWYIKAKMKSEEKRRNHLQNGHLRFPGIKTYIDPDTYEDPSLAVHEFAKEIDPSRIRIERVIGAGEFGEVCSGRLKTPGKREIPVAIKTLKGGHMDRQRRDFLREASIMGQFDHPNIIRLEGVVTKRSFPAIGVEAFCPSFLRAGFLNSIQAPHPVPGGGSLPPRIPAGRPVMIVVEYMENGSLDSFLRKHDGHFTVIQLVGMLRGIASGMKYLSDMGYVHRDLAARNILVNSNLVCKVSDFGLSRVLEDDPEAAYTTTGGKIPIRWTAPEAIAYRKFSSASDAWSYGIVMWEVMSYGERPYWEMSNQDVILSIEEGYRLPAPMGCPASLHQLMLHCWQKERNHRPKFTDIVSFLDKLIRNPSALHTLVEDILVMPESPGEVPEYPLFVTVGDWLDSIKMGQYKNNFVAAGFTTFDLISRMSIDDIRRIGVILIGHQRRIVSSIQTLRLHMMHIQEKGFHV
T12 sequence (Q15208 whole entry): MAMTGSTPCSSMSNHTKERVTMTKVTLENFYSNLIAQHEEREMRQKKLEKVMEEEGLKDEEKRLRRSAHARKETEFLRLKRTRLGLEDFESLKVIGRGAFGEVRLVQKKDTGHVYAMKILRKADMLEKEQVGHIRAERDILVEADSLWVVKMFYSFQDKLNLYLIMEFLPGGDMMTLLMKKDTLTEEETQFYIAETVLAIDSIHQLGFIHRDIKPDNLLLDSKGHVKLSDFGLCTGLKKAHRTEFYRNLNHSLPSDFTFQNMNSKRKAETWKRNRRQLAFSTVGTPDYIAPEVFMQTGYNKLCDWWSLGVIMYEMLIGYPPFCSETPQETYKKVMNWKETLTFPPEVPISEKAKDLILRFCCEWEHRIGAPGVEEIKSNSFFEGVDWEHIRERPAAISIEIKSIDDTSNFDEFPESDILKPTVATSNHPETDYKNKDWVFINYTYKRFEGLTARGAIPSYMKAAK
T40 sequence (P41240 whole entry): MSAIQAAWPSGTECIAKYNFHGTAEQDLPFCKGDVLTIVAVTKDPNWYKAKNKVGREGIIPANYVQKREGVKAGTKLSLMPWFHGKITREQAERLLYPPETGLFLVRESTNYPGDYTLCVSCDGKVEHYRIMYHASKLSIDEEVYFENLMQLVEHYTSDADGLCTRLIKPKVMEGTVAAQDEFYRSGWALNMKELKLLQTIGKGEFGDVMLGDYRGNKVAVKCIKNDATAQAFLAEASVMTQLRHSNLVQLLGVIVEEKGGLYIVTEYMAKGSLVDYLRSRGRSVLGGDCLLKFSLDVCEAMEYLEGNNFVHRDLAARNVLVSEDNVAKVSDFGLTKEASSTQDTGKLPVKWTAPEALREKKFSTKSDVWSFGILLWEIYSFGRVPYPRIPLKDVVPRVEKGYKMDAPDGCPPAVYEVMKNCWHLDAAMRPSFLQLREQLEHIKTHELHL

`CC(C)NC(=O)COc1cccc(-c2nc(Nc3ccc4[nH]ncc4c3)c3ccccc3n2)c1` [KD025, 2-(3-(4-((1H-indazol-5-yl)amino)quinazolin-2-yl)phenoxy)-N-isopropylacetamide] gave a remaining binding at 10 µM (DDR2) of 45%, a remaining binding at 10 µM (CDC2L1) of 98% and a remaining binding at 10 µM (IKK-alpha) of 100%. It also gave a remaining binding at 10 µM (PRKD1) of 72%, a remaining binding at 10 µM (PRKG2) of 88% and a remaining binding at 10 µM (TTK) of 28%. The remaining binding at 10 µM (BMPR1B) was 76%, the remaining binding at 10 µM (NEK3) was 64% and the remaining binding at 10 µM (DRAK2) was 85%. The remaining binding at 10 µM (FGFR3) was 72%, the remaining binding at 10 µM [1] was 100% and the remaining binding at 10 µM (NDR1) was 73%. For the same compound, the remaining binding at 10 µM (DCAMKL2) was 79%, the remaining binding at 10 µM (LIMK2) was 73% and the remaining binding at 10 µM (MYO3B) was 100%. It also gave a remaining binding at 10 µM (NEK11) of 99%, a remaining binding at 10 µM (EPHA5) of 92% and a remaining binding at 10 µM (JNK2) of 66%. It also gave a remaining binding at 10 µM (EPHA6) of 90%, a remaining binding at 10 µM (PIKFYVE) of 12% and a remaining binding at 10 µM [2] of 93%. For the same compound, the remaining binding at 10 µM (PRKCD) was 70%, the remaining binding at 10 µM (DYRK1A) was 72% and the remaining binding at 10 µM (WNK1) was 94%. The remaining binding at 10 µM (FGFR4) was 91%, the remaining binding at 10 µM (KIT(D816V)) was 57% and the remaining binding at 10 µM (FLT3(D835V)) was 23%. For the same compound, the remaining binding at 10 µM (NDR2) was 77%, the remaining binding at 10 µM (RAF1) was 62% and the remaining binding at 10 µM (CAMKK2) was 100%. It also gave a remaining binding at 10 µM (LRRK2) of 100%, a remaining binding at 10 µM (DDR1) of 6.4% and a remaining binding at 10 µM (LRRK2(G2019S)) of 99%. It also gave a remaining binding at 10 µM (ROS1) of 79%, a remaining binding at 10 µM (TGFBR1) of 59% and a remaining binding at 10 µM (FLT3-autoinhibited) of 71%. It also gave a remaining binding at 10 µM (SRPK3) of 5.7%, a remaining binding at 10 µM (CDK9) of 96% and a remaining binding at 10 µM (GCN2(Kin.Dom.2,S808G)) of 100%. The remaining binding at 10 µM (CSK) was 88%, the absolute bioavailability [3] was 37% and the remaining binding at 10 µM (BMX) was 69%. It also gave a remaining binding at 10 µM (PKN2) of 84% and a remaining binding at 10 µM (EPHA1) of 88%.
